Laboratory results from patent US10406122B2 (priority 2011, dated 2019).
Values joined by “and” are separate entries in the source; they are usually repeats but may differ in a detail not shown here. Equal entries are not always repeated. Structures can show the parent of a compound that is named as a salt. Where two headings read alike, the source gives them in different places.

How the values were obtained:
[1] = in vivo; conditions: beagle, dog; for AUC(0-t) / Cmax: 26 mg/kg/day
[2] = in vitro and in vivo; cited from earlier work
[3] = in vivo, cited from earlier work
[4] = clinical; conditions: human, in vivo
From the text: The secondary objectives of the study are to assess the safety and tolerability of the study medication.
The study was an open-label, single-period, randomized, parallel treatment design. The subjects underwent screening within 4 weeks of dosing. A total of 32 subjects were selected for participation. All subjects entered the clinical research unit on Day −1 prior to dosing. A blood sample for pharmacogenomic analysis was obtained at Day 1. This sample was to be used to determine the CYP2D6 phenotype if significant variability among subjects is observed in the pharmacokinetic values. Subjects received study drug every 6 hours beginning on the morning of Day 1 and ending on the morning of Day 3. The first dose on Day 1 and the last dose on Day 3 were administered after a minimum 10 hour fast.
No food was administered until 4 hours after dosing on Day 3. Standardized meals were provided. Subjects remained confined to the clinical research unit until after completion of the 24 hour post-dose blood sampling and safety assessments (Day 4). […] Study drug tolerability was evaluated by Investigator assessment and evaluation of adverse event frequency and severity, including irritation at the injection site. Subjects who were taking SSRIs, tricyclic antidepressants, antipsychotic agents and MAO inhibitors were excluded from the study.
The treatments are defined in Table 3 below. Each subject received only one of the designated treatments.
The subjects were randomized to receive one of the 4 treatment regimens as outlined above. Subjects were administered Treatments A or C by intravenous administration or Ultram® (Treatment B or D) orally beginning in the morning of Day 1 at approximately 6:00 AM to 8:00 AM. All subjects fasted for at least 10 hours prior to the first dose of study drug. […] Water was allowed ad libitum; however, water was restricted from 1 hour prior to dosing to 1 hour after dosing on Day 3. Following the last dose in the morning of Day 3, no food was allowed until after the 4 hour blood sample had been obtained.
FIG. 1 is a graphical representation of the plasma concentration curve for Treatments A-D after the administration of dose #9.

[5] = tested on: patients undergoing TKA or THA; experiment: Example 2: open label study of Tramadol IV in Total knee Arthroplasty or Total Hip Arthroplasty; conditions: for PAIN Intensity Difference, Mean score (SD): 100 mg IV; for Time to first demand of rescue medication after the first dose of Tramadol, Mean: hydrochloride
[6] = tramadol […] [100 mg] p.o., single dose; cited from earlier work
[7] = tested on: mice and rats; conditions: cited from earlier work
[8] = tested on: experienced opioid abusers; conditions: cited from earlier work
[9] = tested on: patients undergoing abdominal surgery; conditions: both groups; cited from earlier work
[10] = tested on: Beagle dogs; conditions: in vivo
[11] = tested on: rats and dogs; conditions: repeat-dose; cited from earlier work

COc1cccc([C@]2(O)CCCC[C@H]2CN(C)C)c1 (racemic) [Tramadol, (±)cis-2-[(dimethylamino)methyl]-1-(3-methoxyphenyl) cyclohexanol hydrochloride]
NOAEL ([1]; both, 6.5 mg/kg): 26 mg/kg/day | AUC(0-t) ([1]; female): 1520 ng·h/mL | Cmax ([1]; female): 1530 ng/mL | AUC(0-t) ([1]; male): 1210 ng·h/mL | Cmax ([1]; male): 1280 ng/mL | genotoxic potential [2]: no evidence of genotoxic potential | half-life ([3]; iv): 5.6 h | absolute bioavailability ([3]; po): 90-100% | increase of elimination half-life [3]: approximately 2 fold | Bioavailability, AUC6 ([4]; 50 mg): 85.2% | Bioavailability, AUCt ([4]; 50 mg): 102.0% | Bioavailability, AUC∞ ([4]; 50 mg): 103.1% | Bioavailability, Cmax ([4]; 50 mg): 64.3% | Bioavailability, T1/2 ([4]; 50 mg): 109.6% | bioavailability ([4]; 50 mg): 91.2% | Bioavailability, AUC6 ([4]; 100 mg): 70.3% | Bioavailability, AUCt ([4]; 100 mg): 74.8% | Bioavailability, AUC∞ ([4]; 100 mg): 74.6% | Bioavailability, Cmax ([4]; 100 mg): 54.9% | Bioavailability, T1/2 ([4]; 100 mg): 88.0% | bioavailability ([4]; 100 mg): 114% | dose proportionality ([4]; iv): substantially dose proportional | AUC ([4]; iv, 50 mg): 1960 ± 450 ng·h/mL | AUC(0-inf) ([4]; iv, 50 mg): 4040 ± 1060 ng·h/mL | AUC(0-t) ([4]; iv, 50 mg): 4010 ± 1040 ng·h/mL | half-life ([4]; iv, 50 mg): 6.61 ± 0.4 h | Cmax ([4]; iv, 50 mg): ~541 ng/mL | Tmax ([4]; iv, 50 mg): ~0.375 h | AUC ([4]; iv, 100 mg): 4730 ± 1240 ng·h/mL | AUC(0-inf) ([4]; iv, 100 mg): 11400 ± 4540 ng·h/mL | AUC(0-t) ([4]; iv, 100 mg): 11200 ± 4270 ng·h/mL | half-life ([4]; iv, 100 mg): 7.89 ± 1.54 h | Cmax ([4]; iv, 100 mg): ~1250 ng/mL | Tmax ([4]; iv, 100 mg): ~0.406 h | Dose Proportionality Ratio, T1/2 ([4]; po): 0.945 | AUC ([4]; po, 50 mg): 1730 ± 625 ng·h/mL | AUC(0-inf) ([4]; po, 50 mg): 4450 ± 2110 ng·h/mL | AUC(0-t) ([4]; po, 50 mg): 4360 ± 2030 ng·h/mL | half-life ([4]; po, 50 mg): 7.39 ± 1.72 h | Cmax ([4]; po, 50 mg): 355 ± 121 ng/mL | Tmax ([4]; po, 50 mg): 1.88 ± 0.78 h | AUC ([4]; po, 100 mg): 3360 ± 1010 ng·h/mL | AUC(0-inf) ([4]; po, 100 mg): 8850 ± 4570 ng·h/mL | AUC(0-t) ([4]; po, 100 mg): 8660 ± 4260 ng·h/mL | half-life ([4]; po, 100 mg): 7.05 ± 1.97 h | Cmax ([4]; po, 100 mg): 703 ± 210 ng/mL | Tmax ([4]; po, 100 mg): 2.32 ± 1.35 h | major adverse events ([5]; 100 mg IV every 6 hours, 48 hours): nausea and vomiting, followed by pruritus | tolerability ([5]; 100 mg QID, patients with both high and low BMI): well tolerated | Morphine usage, Mean ([5]; 1st dose Tramadol at wound closure, First 24 hours): 10.57 mg | Morphine usage, Mean ([5]; 1st dose Tramadol at wound closure, In 48 hours): 12.98 mg | Morphine usage, Mean ([5]; 1st dose Tramadol at wound closure, Loading dose): 4.05 mg | Morphine usage, Mean ([5]; 1st dose Tramadol at wound closure, Second 24 hours): 3.79 mg | Morphine usage, Mean ([5]; 1st dose Tramadol on demand, First 24 hours): 11.03 mg | Morphine usage, Mean ([5]; 1st dose Tramadol on demand, In 48 hours): 12.92 mg | Morphine usage, Mean ([5]; 1st dose Tramadol on demand, Loading dose): 3.69 mg | Morphine usage, Mean ([5]; 1st dose Tramadol on demand, Second 24 hours): 4 mg | PAIN Intensity Difference, Mean score (SD) ([5]; 1st dose at wound closure, 0.5 hours post first dose): 0 (0.09) | PAIN Intensity Difference, Mean score (SD) ([5]; 1st dose at wound closure, 1 hour post first dose): −0.3 (1.6) | PAIN Intensity Difference, Mean score (SD) ([5]; 1st dose at wound closure, 2 hours post first dose): −1.2 (1.8) | PAIN Intensity Difference, Mean score (SD) ([5]; 1st dose at wound closure, 3 hours post first dose): −2.2 (1.9) | PAIN Intensity Difference, Mean score (SD) ([5]; 1st dose at wound closure, 4 hours post first dose): −2.6 (2.0) | PAIN Intensity Difference, Mean score (SD) ([5]; 1st dose at wound closure, 6 hours post first dose): −3.2 (2.1) | PAIN Intensity Difference, Mean score (SD) ([5]; 1st dose at wound closure, 9 hours post first dose): −2.7 (2.2) | PAIN Intensity Difference, Mean score (SD) ([5]; 1st dose at wound closure, 12 hours post first dose): −2.2 (2.0) | PAIN Intensity Difference, Mean score (SD) ([5]; 1st dose at wound closure, 18 hours post first dose): −2.2 (2.1) | PAIN Intensity Difference, Mean score (SD) ([5]; 1st dose at wound closure, 24 hours post first dose): −1.9 (1.5) | PAIN Intensity Difference, Mean score (SD) ([5]; 1st dose at wound closure, 30 hours post first dose): −1.6 (1.4) | PAIN Intensity Difference, Mean score (SD) ([5]; 1st dose at wound closure, 36 hours post first dose): −1.3 (1.4) | PAIN Intensity Difference, Mean score (SD) ([5]; 1st dose at wound closure, 42 hours post first dose): −1.7 (1.8) | PAIN Intensity Difference, Mean score (SD) ([5]; 1st dose at wound closure, 48 hours post first dose): −1.4 (1.5) | PAIN Intensity Difference, Mean score (SD) ([5]; 1st dose on demand, 0.5 hours post first dose): −0.1 (2.4) | PAIN Intensity Difference, Mean score (SD) ([5]; 1st dose on demand, 1 hour post first dose): −0.5 (2.8) | PAIN Intensity Difference, Mean score (SD) ([5]; 1st dose on demand, 2 hours post first dose): 0.2 (2.1) | PAIN Intensity Difference, Mean score (SD) ([5]; 1st dose on demand, 3 hours post first dose): 0.3 (2.3) | PAIN Intensity Difference, Mean score (SD) ([5]; 1st dose on demand, 4 hours post first dose): 0.3 (2.6) | PAIN Intensity Difference, Mean score (SD) ([5]; 1st dose on demand, 6 hours post first dose): 0.1 (2.8) | PAIN Intensity Difference, Mean score (SD) ([5]; 1st dose on demand, 9 hours post first dose): 0.8 (2.9) | PAIN Intensity Difference, Mean score (SD) ([5]; 1st dose on demand, 12 hours post first dose): 1.4 (2.0) | PAIN Intensity Difference, Mean score (SD) ([5]; 1st dose on demand, 18 hours post first dose): 1.2 (2.2) | PAIN Intensity Difference, Mean score (SD) ([5]; 1st dose on demand, 24 hours post first dose): 1.6 (1.8) | PAIN Intensity Difference, Mean score (SD) ([5]; 1st dose on demand, 30 hours post first dose): 1.9 (2.4) | PAIN Intensity Difference, Mean score (SD) ([5]; 1st dose on demand, 36 hours post first dose): 1.9 (2.1) | PAIN Intensity Difference, Mean score (SD) ([5]; 1st dose on demand, 42 hours post first dose): 2.1 (2.1) | PAIN Intensity Difference, Mean score (SD) ([5]; 1st dose on demand, 48 hours post first dose): 2.4 (2.3) | Time to first demand of rescue medication after the first dose of Tramadol, Mean ([5]; Tramadol at wound Closure group): 2.5 (+/−3) hours and 2.52 hours | Time to first demand of rescue medication after the first dose of Tramadol, Mean ([5]; Tramadol on demand group): 2.11 h | Time to first demand of rescue medication after the first dose of Tramadol, Mean ([5]; Tramadol on demand group, listed as tramadol): 2.1 (+/−5.4) hours | total amount of morphine used ([5]; both groups): approximately 15 mg | rescue morphine used ([5]; first 24 hours, both groups): about 11 mg | rescue morphine used ([5]; the next day, both groups): 4 mg | AUC [6]: 2177 ± 722 ng·h/mL | Cmax [6]: 274 ± 75 ng/mL | Tmax [6]: 1.6 ± 0.5 h | t1/2 [6]: 5.9 ± 0.7 h | carcinogenic potential [7]: no evidence of carcinogenic potential | seizure ([8]; 200 mg IV administered over 5 minutes): No seizures were observed | seizure ([8]; 300 mg IV delivered over 2.5 minutes): seizure was observed | seizure ([8]; 700 mg IV administered over 1 minute): seizure was observed | ratings of feel drug effect compared to placebo ([8]; IV over 5 minutes): significantly increased ratings | ratings of liking / ARCI-MBG scale ([8]; tramadol 100 and 200 mg IV, morphine 10 and 20 mg IV, over 5 minutes): neither dose of tramadol increased ratings | patients reporting adverse events [9]: 25% | adverse observations ([10]; dog): convulsions for two Beagle dogs | toxicity in humans, conclusion from dog data [10]: not toxic | doses with behavioral/clinical signs and convulsions [11]: ≥ 25 mg/kg/day
